Columns and labels:
Female SD rats = experiment: Diuretic action (rats); type: in vivo, rat (SD); details: mean ± S.E.
Procedure: Female SD rats aged 6 weeks (9 rats per dosage) were used. After an 18-hour fast, the rats were dosed with the test drug and, at the same time, orally loaded with 20 ml/kg of physiological saline. The rats were then placed in metabolism cages, 3 animals per cage, and the 0-6 hour and 6-24 hour urines were collected. Meanwhile, the animals were additionally loaded with 25 ml/kg of physiological saline immediately after collection of the 0-6 hour urine. Na^+ in urine was determined with STAT/ION II (Technicon).
The results were respectively converted to the amounts of excretion per kg rat body weight, which were then tabulated as the mean±S.E. for each dose level.
The drug was suspended in 0.5% methylcellulose at necessary concentrations and 5 ml/kg of each suspension was orally administered. The control group similarly received 0.5% methylcellulose only.

Female beagle dogs = experiment: Diuretic action (beagle dogs); type: in vivo, dog (beagle); details: 100 mg/kg p.o., interval not given, mean ± S.E.
Procedure: Female beagle dogs weighing 8 to 10 kg were used (6 dogs per group). After an 18-hour fast, the animals were orally dosed with 5 ml/kg of suspensions of the drug in 0.5% methylcellulose and, at the same time, orally loaded with 15 ml/kg of physiological saline and the 0-6 hr and 6-24 hr urines were collected. Meanwhile, the dogs were additionally loaded with 20 ml/kg of physiological saline immediately after collection of the 0-6 hr urine. Na^+ in urine was determined with STAT/ION (Technicone).
The results were respectively converted to the amounts of excretion per kg body weight, which were then tabulated as the mean±S.E. for each dose level. The control group similarly received 0.5% methylcellulose instead of the drug.

DOCA hypertensive rats = experiment: Antihypertension action (DOCA hypertensive rats); type: in vivo, rat (Wistar)
Procedure: Male Wistar rats, 10 weeks old, were subjected to left nephrectomy and 2 to 4 days after operation, deoxycorticosterone acetate was administered subcutaneously in a dose of 30 mg/ml/kg twice a week. The animals were given 1% saline for drinking water and the individuals showing a mean blood pressure of ≥150 mmHg at 15 weeks of age were submitted to the experiment. After catheterization, saline for drinking water was replaced with tap water. At the beginning of the experiment, the test rats had mean blood pressures from 152 to 204 mmHg, heart rates from 354 to 462 beats/min. and body weights from 232 to 318 g. 3~5 Animals per group were used.
3 Or 4 days before the beginning of the experiment, one end of a catheter for blood pressure measurement was passed from the femoral artery to the abdominal aorta of each rat and the other end was passed beneath the skin and fixed in exposed position in the dorsocervical region. The drug was orally administered once a day for 5 consecutive days. The rats had been deprived of food for about 3 hours before drug administration. The blood pressure was measured before administration and 5 hours after administration of days 1, 3 and 5. At each blood pressure measurement, the mean blood pressure was observed via a pressure transducer connected to the dorsocervical end of the catheter for blood pressure measurement and the stabilized mean blood pressure was recorded.
Drug was suspended and diluted using a 0.5% solution of methylcellulose and 5ml/kg of the suspension was orally administered.

[1] = 3.2 mg/kg p.o. once a day, Day 1 after 5 hr
[2] = 3.2 mg/kg p.o. once a day, Day 1 before administration (baseline)
[3] = 3.2 mg/kg p.o. once a day, Day 3 after 5 hr
[4] = 3.2 mg/kg p.o. once a day, Day 3 before administration
[5] = 3.2 mg/kg p.o. once a day, Day 5 after 5 hr
[6] = 3.2 mg/kg p.o. once a day, Day 5 before administration
[7] = 10 mg/kg p.o. once a day, Day 1 after 5 hr
[8] = 10 mg/kg p.o. once a day, Day 1 before administration (baseline)
[9] = 10 mg/kg p.o. once a day, Day 3 after 5 hr
[10] = 10 mg/kg p.o. once a day, Day 3 before administration
[11] = 10 mg/kg p.o. once a day, Day 5 after 5 hr
[12] = 10 mg/kg p.o. once a day, Day 5 before administration
[13] = 100 mg/kg p.o. once a day, Day 1 after 5 hr
[14] = 100 mg/kg p.o. once a day, Day 1 before administration (baseline)
[15] = 100 mg/kg p.o. once a day, Day 3 after 5 hr
[16] = 100 mg/kg p.o. once a day, Day 3 before administration
[17] = 100 mg/kg p.o. once a day, Day 5 after 5 hr
[18] = 100 mg/kg p.o. once a day, Day 5 before administration

O=C(O)Cn1c(=O)n(Cc2ccc(Br)cc2F)c(=O)c2ccc(F)cc21 [Compound B, 2-[7-Fluoro-3-(4-bromo-2-fluorobenzyl)-1,2,3,4-tetrahydro-2,4-dioxoquinazolin-1-yl]acetic acid]
Urine volume (Female SD rats; 100 mg/kg p.o., 0-6 hr, control 13.2 ± 2.0): 30.1 ± 1.5 mL/kg
Na^+ (urine) (Female SD rats; 100 mg/kg p.o., 0-6 hr, control 1460 ± 173): 2416 ± 101 μEq/kg
Urine volume (Female SD rats; 100 mg/kg p.o., 6-24 hr, control 26.59 ± 2.24): 33.69 ± 0.55 mL/kg
Na^+ (urine) (Female SD rats; 100 mg/kg p.o., 6-24 hr, control 3830 ± 463): 3940 ± 295 μEq/kg
Urine volume (Female SD rats; 100 mg/kg p.o., total 0-24 hr, control 39.78 ± 4.26): 63.75 ± 1.19 mL/kg
Na^+ (urine) (Female SD rats; 100 mg/kg p.o., total 0-24 hr, control 5289 ± 636): 6356 ± 311 μEq/kg
Urine volume (Female SD rats; 320 mg/kg p.o., 0-6 hr, control 13.2 ± 2.0): 37.9 ± 1.5 mL/kg
Na^+ (urine) (Female SD rats; 320 mg/kg p.o., 0-6 hr, control 1460 ± 173): 3021 ± 440 μEq/kg
Urine volume (Female SD rats; 320 mg/kg p.o., 6-24 hr, control 26.59 ± 2.24): 61.22 ± 6.20 mL/kg
Na^+ (urine) (Female SD rats; 320 mg/kg p.o., 6-24 hr, control 3830 ± 463): 5861 ± 194 μEq/kg
Urine volume (Female SD rats; 320 mg/kg p.o., total 0-24 hr, control 39.78 ± 4.26): 99.10 ± 6.64 mL/kg
Na^+ (urine) (Female SD rats; 320 mg/kg p.o., total 0-24 hr, control 5289 ± 636): 8882 ± 630 μEq/kg
Urine volume (Female beagle dogs; control 5.8 ± 1.4): 13.3 ± 2.6 mL/kg
Na^+ (urine) (Female beagle dogs; control 544 ± 133): 1068 ± 280 μEq/kg
Mean blood pressure (DOCA hypertensive rats; [1]): 176 mm Hg
Percentage of change (mean blood pressure) (DOCA hypertensive rats; [1]): -8.9%
Mean blood pressure (DOCA hypertensive rats; [2]): 193 mm Hg
Percentage of change (mean blood pressure) (DOCA hypertensive rats; [2]): 0.0%
Mean blood pressure (DOCA hypertensive rats; [3]): 160 mm Hg
Percentage of change (mean blood pressure) (DOCA hypertensive rats; [3]): -17.1%
Mean blood pressure (DOCA hypertensive rats; [4]): 175 mm Hg
Percentage of change (mean blood pressure) (DOCA hypertensive rats; [4]): -9.3%
Mean blood pressure (DOCA hypertensive rats; [5]): 161 mm Hg
Percentage of change (mean blood pressure) (DOCA hypertensive rats; [5]): -16.7%
Mean blood pressure (DOCA hypertensive rats; [6]): 167 mm Hg
Percentage of change (mean blood pressure) (DOCA hypertensive rats; [6]): -13.5%
Mean blood pressure (DOCA hypertensive rats; [7]): 148 mm Hg
Percentage of change (mean blood pressure) (DOCA hypertensive rats; [7]): -17.5%
Mean blood pressure (DOCA hypertensive rats; [8]): 180 mm Hg
Percentage of change (mean blood pressure) (DOCA hypertensive rats; [8]): 0.0%
Mean blood pressure (DOCA hypertensive rats; [9]): 132 mm Hg
Percentage of change (mean blood pressure) (DOCA hypertensive rats; [9]): -26.1%
Mean blood pressure (DOCA hypertensive rats; [10]): 137 mm Hg
Percentage of change (mean blood pressure) (DOCA hypertensive rats; [10]): -23.3%
Mean blood pressure (DOCA hypertensive rats; [11]): 143 mm Hg
Percentage of change (mean blood pressure) (DOCA hypertensive rats; [11]): -20.0%
Mean blood pressure (DOCA hypertensive rats; [12]): 139 mm Hg
Percentage of change (mean blood pressure) (DOCA hypertensive rats; [12]): -22.5%
Mean blood pressure (DOCA hypertensive rats; [13]): 151 mm Hg
Percentage of change (mean blood pressure) (DOCA hypertensive rats; [13]): -14.5%
Mean blood pressure (DOCA hypertensive rats; [14]): 176 mm Hg
Percentage of change (mean blood pressure) (DOCA hypertensive rats; [14]): 0.0%
Mean blood pressure (DOCA hypertensive rats; [15]): 130 mm Hg
Percentage of change (mean blood pressure) (DOCA hypertensive rats; [15]): -26.2%
Mean blood pressure (DOCA hypertensive rats; [16]): 144 mm Hg
Percentage of change (mean blood pressure) (DOCA hypertensive rats; [16]): -18.4%
Mean blood pressure (DOCA hypertensive rats; [17]): 135 mm Hg
Percentage of change (mean blood pressure) (DOCA hypertensive rats; [17]): -23.6%
Mean blood pressure (DOCA hypertensive rats; [18]): 138 mm Hg
Percentage of change (mean blood pressure) (DOCA hypertensive rats; [18]): -22.3%

Source: US4957923A, “Diuretic or antihypertensive composition” (Fujisawa Pharmaceutical Co., Ltd., priority 1988, dated 1990)
